What all share (assay type): cell-based
For experiment [1], the target named is T1, human prostanoid FP receptor (Homo sapiens, UniProt P43088).
T1 construct: expressed in transfected cells
Nature of the experiment: FLIPR Ca2+ signaling PG antagonist assay, FP stable cell line. The note with it: HEK-293 EBNA cells, human recombinant FP, no exogenous G-protein; standard agonist 17-phenyl-PGF2α. The essentials: (§1)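 Stable HEK-293 EBNA lines (DP1 with chimeric Gqs, EP3 with Gqi, EP1 and FP without exogenous G protein) were Fluo-4AM-loaded and pretreated 4.5 min at 37 °C with compound (0.1–30 μM). Agonist (BW 245C for DP1, PGE2 for EP1/EP3, 17-phenyl-PGF2α for FP) was then added at 10^−11–10^−5 M. Peak Ca2+ fluorescence was taken relative to agonist at 10^−6 M.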

Experiment [2] deals with T2, human prostanoid DP1 receptor (Homo sapiens, UniProt Q13258).
T2 construct: expressed in transfected cells
T2 sequence (Q13258 1-359): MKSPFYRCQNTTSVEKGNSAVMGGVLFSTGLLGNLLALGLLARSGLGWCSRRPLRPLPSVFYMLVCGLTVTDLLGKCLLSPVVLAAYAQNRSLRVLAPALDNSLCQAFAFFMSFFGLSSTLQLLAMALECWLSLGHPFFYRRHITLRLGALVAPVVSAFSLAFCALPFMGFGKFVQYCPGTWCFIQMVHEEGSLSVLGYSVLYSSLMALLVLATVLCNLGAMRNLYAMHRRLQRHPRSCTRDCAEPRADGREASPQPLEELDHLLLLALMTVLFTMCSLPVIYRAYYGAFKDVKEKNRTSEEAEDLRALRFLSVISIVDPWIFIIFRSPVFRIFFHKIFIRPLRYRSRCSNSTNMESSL
Nature of the experiment: FLIPR Ca2+ signaling PG antagonist assay, DP1 stable cell line. The settings on record: HEK-293 EBNA cells, human recombinant DP1 with chimeric Gqs; standard agonist BW 245C; read-out: DP (Kb, PG antagonist activity). The essentials:
as §1

For experiment [3], the target named is T3, human prostanoid TP receptor (Homo sapiens, UniProt P21731).
T3 construct: expressed in transfected cells
T3 sequence (P21731 1-343): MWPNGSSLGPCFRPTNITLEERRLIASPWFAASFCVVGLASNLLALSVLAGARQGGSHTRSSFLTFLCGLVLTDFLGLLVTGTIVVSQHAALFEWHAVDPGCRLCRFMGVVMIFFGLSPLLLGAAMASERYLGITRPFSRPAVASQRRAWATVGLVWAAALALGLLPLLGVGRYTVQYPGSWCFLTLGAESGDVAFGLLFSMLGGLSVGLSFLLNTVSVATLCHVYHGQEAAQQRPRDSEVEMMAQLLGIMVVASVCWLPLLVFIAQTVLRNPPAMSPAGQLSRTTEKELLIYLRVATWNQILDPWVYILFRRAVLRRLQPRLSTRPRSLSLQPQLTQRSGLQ
The experiment is described as follows: FLIPR Ca2+ signaling PG antagonist assay, TP stable cell line. The settings on record: HEK-293 EBNA cells, human recombinant TP, no exogenous G-protein; standard agonist U-46619. Put shortly: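 HEK-293 EBNA stable lines; EP2 co-expressed with chimeric Gqs, EP1/IP/TP with no exogenous G protein. Fluo-4AM-loaded cells pretreated 4.5 min at 37 °C with compound (0.1–30 μM; TP 0.067–1 μM), then standard agonist (PGE2, cicaprost, U-46619) 10^−11–10^−5 M (TP 10^−12–10^−6 M); peak fluorescence read 3.5 min, nonlinear regression.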

T1 sequence (P43088 whole entry): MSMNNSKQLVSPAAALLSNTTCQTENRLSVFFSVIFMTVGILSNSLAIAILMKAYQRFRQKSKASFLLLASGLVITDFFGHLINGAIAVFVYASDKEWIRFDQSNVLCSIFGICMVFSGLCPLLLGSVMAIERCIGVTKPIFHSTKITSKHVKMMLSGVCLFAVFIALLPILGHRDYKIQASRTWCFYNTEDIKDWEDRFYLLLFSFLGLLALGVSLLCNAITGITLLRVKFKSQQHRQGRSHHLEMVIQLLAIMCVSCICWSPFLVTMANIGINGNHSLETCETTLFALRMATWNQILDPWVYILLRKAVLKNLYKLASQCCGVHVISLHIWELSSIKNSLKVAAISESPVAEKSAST

For `CC(C)COc1ccc(OC(F)(F)F)cc1Cn1ccc2cc(C(=O)O)ccc21` [Example 71, 1-(2-Isobutoxy-5-Trifluoromethoxy-Benzyl)-1H-Indole-5-Carboxylic Acid], the Kb (as a rule, the equilibrium dissociation constant of an antagonist, usually derived from a functional assay) in experiment [1] is 120 nM; in experiment [2], not below 10000 nM; in experiment [3] it was 600 nM.
`CC(C)COc1ccc(Br)cc1Cn1ccc2cc(C(=O)O)cnc21` [Example 72, 1-(5-Bromo-2-Isobutoxy-Benzyl)-1H-Pyrrolo[2,3-B]Pyridine-5-Carboxylic Acid]: the Kb in experiment [1] came to 25 nM; in experiment [2] it was 1500 nM; in experiment [3], 3 nM.
On the same counts, the results for `CC(C)COc1ccc(Br)cc1Cn1ccc2nc(C(=O)O)ccc21` [Example 73, 1-(5-Bromo-2-Isobutoxy-Benzyl)-1H-Pyrrolo[3,2-B]Pyridine-5-Carboxylic Acid] are 430 nM, not below 10000 nM and 8 nM.
On the same counts, the results for `CC(C)COc1ccc(OC(F)(F)F)cc1Cn1ccc2cc(C(=O)O)cnc21` [Example 74, 1-(2-Isobutoxy-5-Trifluoromethoxy-Benzyl)-1H-Pyrrolo[2,3-B]Pyridine-5-Carboxylic Acid] are 660 nM, 290 nM and 20 nM.
On the same counts, the results for `Cc1cn(Cc2cc(OC(F)(F)F)ccc2OCC(C)C)c2ccc(C(=O)O)cc12` [Example 75, 1-(2-Isobutoxy-5-Trifluoromethoxy-Benzyl)-3-Methyl-1H-Indole-5-Carboxylic Acid] are 330 nM, 1300 nM and 300 nM.
Regarding `CCC(CC)COc1ccc(OC(F)(F)F)cc1Cn1cc(C)c2cc(C(=O)O)ccc21` [Example 77, 1-[2-(2-Ethyl-Butoxy)-5-Trifluoromethoxy-Benzyl]-3-Methyl-1H-Indole-5-Carboxylic Acid], the Kb in experiment [1] is 9600 nM; in experiment [2], 3600 nM; in experiment [3] it was 1100 nM.
Consider `CCC(CC)COc1ccc(Br)cc1Cn1cnc2cc(C(=O)O)ccc21` [Example 78, 1-[5-Bromo-2-(2-Ethyl-Butoxy)-Benzyl]-1H-Benzoimidazole-5-Carboxylic Acid], for which the Kb in experiment [1] worked out at 800 nM; in experiment [2] it was 3800 nM; in experiment [3], 16 nM.
Take `CC(C)COc1ccc(Br)cc1Cn1cnc2cc(C(=O)O)ccc21` [Example 79, 1-(5-Bromo-2-Isobutoxy-Benzyl)-1H-Benzoimidazole-5-Carboxylic Acid]: the figures for the Kb in experiment [1], in experiment [2] and in experiment [3] were 80 nM, 2000 nM and 8 nM, respectively.

Source of the values: patent US10988474B2, “Compounds acting at multiple prostaglandin receptors giving a general anti-inflammatory response” (ALLERGAN, INC., priority 2011, dated 2021).
